Measurements reported in article PMC9027957, “Interspecies Comparisons of the Effects of Potential Antiviral 3-Amidinophenylalanine Derivatives on Cytochrome P450 1A2 Isoenzyme” (Veterinary Sciences, 2022).

Columns and labels:
[1] = target: T1, CYP1A2 (Macaca fascicularis, UniProt O77809); assay: CYP1A2 fluorometric activity assay in cynomolgus monkey hepatic microsomes; assay type: in vitro ADME; design: cynomolgus monkey microsomal suspension (Primacyt, Schwerin, Germany, protein concentration: 5 mg/mL); tissue Primacyt, Schwerin, Germany; host or cells: liver (hepatic microsomes)
T1 sequence (O77809 1-516): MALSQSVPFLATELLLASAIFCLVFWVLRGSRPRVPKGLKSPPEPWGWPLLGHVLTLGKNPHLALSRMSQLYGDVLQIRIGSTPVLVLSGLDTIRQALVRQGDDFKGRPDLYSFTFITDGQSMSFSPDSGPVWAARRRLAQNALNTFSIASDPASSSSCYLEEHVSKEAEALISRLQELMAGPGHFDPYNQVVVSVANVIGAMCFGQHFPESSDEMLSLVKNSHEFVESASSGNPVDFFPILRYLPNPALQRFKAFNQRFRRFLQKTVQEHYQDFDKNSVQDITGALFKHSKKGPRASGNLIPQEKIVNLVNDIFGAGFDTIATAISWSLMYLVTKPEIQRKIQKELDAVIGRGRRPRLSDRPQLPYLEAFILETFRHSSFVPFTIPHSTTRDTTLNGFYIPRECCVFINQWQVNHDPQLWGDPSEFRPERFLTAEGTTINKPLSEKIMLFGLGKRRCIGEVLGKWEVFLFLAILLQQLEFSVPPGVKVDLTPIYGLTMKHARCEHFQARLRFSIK
Description: The Biovision CYP assay (BioVision, Inc., Kampenhout, Belgium) utilizes a non-fluorescent CYP1A2 substrate capable of transforming into a highly fluorescent metabolite, which can be detected in the visible range. α-naphthoflavone was used as a CYP1A2 reference inhibitor at 6 µM during the experiments. Rat (Sprague–Dawley) and beagle (Gibco, Biocenter, Szeged, Hungary, protein concentration: 20 mg/mL) hepatic microsomal preparations were prepared separately by mixing 25 µL of the obtained rat or beagle microsomal suspension with 2425 µL assay buffer and with 50 µL NADPH generating system (100×). In the case of the cynomolgus monkey microsomal suspension (Primacyt, Schwerin, Germany, protein concentration: 5 mg/mL), the following volumes were applied: in addition to 100 µL of monkey microsomal suspension, the amount of assay buffer and the NADPH generating system were adjusted in order to ensure the original ratios of these components to reach a final volume of 2500 µL. Rat, beagle, and cynomolgus monkey microsomal suspension aliquots (50 µL) were treated with the protease inhibitor 20 µL, 0–1000 µM), the reference compound α-naphthoflavone (20 µL, 30 µM), or the assay buffer without test compounds (20 µL, background control) for 15 min at 37 °C. After incubation, 30 µL of the appropriate CYP1A2 substrate/NADP+ mixture was added to each well, yielding a final reaction volume of 100 µL/well. The protein contents of the obtained microsomes were analysed using bicinchoninic acid protein assay kit (Pierce BCA kit, Thermo Fisher Scientific, Waltham, MA, USA). […] The fluorescence intensities were measured with a fluorometer (Victor X2 2030, Perkin Elmer, Waltham, MA, USA), using λEx/Em = 406/468 nm.

[2] = 60 min microsomal stability assay (UPLC-MS/MS), cynomolgus monkey liver microsomes; assay type: in vitro ADME; settings: 50 µM
Description: (§1) Rat, beagle (Gibco, Biocenter, Szeged, Hungary), and cynomolgus monkey (Primacyt, Schwerin, Germany) liver microsomes were exposed to inhibitors MI-432, MI-463, MI-482, or MI-1900 at 50 µM for 60 min. The final microsomal protein concentration in the suspension was 0.6 mg/mL in each case. The reaction buffer (100 mM phosphate buffer pH 7.4) also contained 1 mM nicotinamide adenine dinucleotide phosphate (NADPH), 5 mM MgCl2, 10 mM glucose-6-phosphate (G6P), and 2 IU/mL glucose-6-phosphate dehydrogenase (G6PD). The reaction was terminated by the addition of ice-cold acetonitrile (ACN) with the ratio of sample ACN volume = 1:2. The precipitated protein was removed by centrifugation at 10,000× g for 10 min, and the supernatants were used for subsequent analyses.
(§2) The determination of all analytes was carried out using an UPLC/MS/MS system, which consisted of an HPLC apparatus (SCIEX ExionLC^TM UPLC, Framigham, MA, USA) and a SCIEX Qtrap 4500 triple-quadrupole mass spectrometer (Framigham, MA, USA) equipped with a SCIEX Turbo V electrospray ionization source. The HPLC columns used were LiChrospher RP Select B (125 × 4.0 mm, 5.0 μm, C8 stationary phase). Next, 0.1% trifluoroacetic acid in ultra-purified water (A) and acetonitrile (B) were used as mobile phases for chromatographic separations applying a gradient elution. The HPLC gradient program was the following: between 0 and 10 min, a ratio of 70% A and 30% B; from 10 to 20 min, linearly increasing to a ratio of 50% A and 50% B; from 20 to 21 min, maintained at a ratio of 50% A and 50% B; from 21 to 22 min, linearly decreasing back to a ratio of 70% A and 30% B; and between 22 min and 30 min, maintained at a ratio of 70% A and 30% B. The run time was 30 min, the column temperature was adjusted to 35 °C, and the flow rate was 1 mL/min.

[3] = 60 min microsomal stability assay (UPLC-MS/MS), rat liver microsomes; assay type: in vitro ADME; settings: 50 µM
Description: as §1, §2

[4] = system: chicken hepatic cell model; settings: cited from earlier work
[5] = system: cynomolgus monkey hepatocytes; assay: MTS cytotoxicity assay in cynomolgus monkey primary hepatocytes; assay type: cell-based; settings: 50 μM and 100 μM, 24 h
Description: (§3) Rat, beagle, and cynomolgus monkey cryopreserved primary hepatocytes were obtained from Primacyt Cell Culture Company (Schwerin, Germany). The thawing, plating, and maintenance media were purchased from Lonza Group Ltd. (Biocenter Ltd., Szeged, Hungary). Influence of inhibitors MI-432 and MI-1900 on the viability of primary […] hepatocytes was tested. Hepatocytes, grown on a 96-well plate for 24 h, were incubated with the inhibitors at 0, 50, and at 100 µM for 24 h in treated groups. The control cells were incubated only with cell maintenance medium. After removal of the medium and three-fold washing of the cells with phosphate-buffered saline (PBS), 20 μL aliquots of CellTiter 96 AQueous one solution (MTS, Promega, Bioscience, Budapest, Hungary) were pipetted into a 96-well plate, each containing 100 μL of phenol red free medium. The plate was incubated with dye for 2 h. Viability of hepatocytes was measured at 490 nm using an EZ Read Biochrom 400 microplate reader.

[6] = system: intestinal epithelial cells; settings: up to a concentration 50 μM; cited from earlier work
[7] = system: rat hepatocytes; assay: MTS cytotoxicity assay in rat primary hepatocytes; assay type: cell-based; settings: 50 μM and 100 μM, 24 h
Description: as §3

[8] = system: intestinal epithelial cells (HIEC and IPEC-J2) and primary human hepatocytes (PHH); settings: up to a concentration 50 μM; cited from earlier work

Row | Compound | IC50 [1] | CYP1A2 in the cynomolgus monkey microsomal model ([1]; microsomes) | depletion percentage of the parent compound ([2]; cynomolgus monkey, pH 7.4) | depletion percentage of the parent compound ([3]; Sprague-Dawley, rat, pH 7.4) | redox homeostasis [4] | cell viability vs control [5] | extracellular hydrogen peroxide levels [6] | cell viability vs control [7] | CYP1A2 in the cynomolgus monkey microsomal model ([1]; inhibitors at 50 µM) | depletion percentage of the parent compound ([2]; monkey microsomes, 0.6 mg/mL protein, mean ± SD (n = 3)) | depletion percentage of the parent compound ([3]; rat microsomes, 0.6 mg/mL protein, mean ± SD (n = 3)) | cell death [8]
1 | N=C(N)c1cccc(C[C@H](NS(=O)(=O)c2cccc(-c3ccc(Cl)cc3Cl)c2)C(=O)N2CCC(CCN)CC2)c1 [MI-432] | 1.3 ± 0.14 µM | inhibited | 19.6 ± 5.8% | 28 ± 3.1% | only transiently disturbed | – | – | – | – | – | – | –
2 | COc1ccc(-c2cccc(S(=O)(=O)N[C@@H](Cc3cccc(C(=N)N)c3)C(=O)N3CCN(C(=O)NC4CCCCC4)CC3)c2)c(OC)c1 [MI-1900] | 1.1 ± 0.8 µM | – | – | – | – | No significant differences | did not result in elevation in extracellular hydrogen peroxide levels | No significant differences | inhibited | 26.7 ± 10.8% | 30.7 ± 11.7% | did not cause significant cell death
